Data published in patent US20150352076A1, “MOLECULARLY TARGETED COMBINATION DRUG FOR TUMOR TREATMENT AND PREVENTION” (ONCOLYS BIOPHARMA INC., priority 2013, published 2015).
Residues, ends and D or L forms follow the SMILES beside them. *: point of attachment. Cbz = O=C(OCc1ccccc1)*; CH2F = FC*

How the values were obtained:
Assay type in all cases: cell-based, human
[1] = system: 786-O cells; assay: Analysis of apoptosis (sub-G1 fraction, flow cytometry); details: for effect of combined use with OBP-801 (summary statement): PI3K inhibitor used in combination with OBP-801, all five tested in 786-O cells; for induction of apoptosis (sub-G1), treatment alone: 48 hours and 72 hours
Description: (§1) Cells were treated for 24 hours, 48 hours, or 72 hours at respective concentrations with or without addition of OBP-801 and/or with addition of LY294002, BKM120, GDC-0941, BEZ235, BYL719, or CH5132799, following which cells were harvested. The cells were permeabilized with 0.1% Triton-X100, following which the nuclei were stained with propidium iodide (PI). DNA content was measured using a FACSCalibur™ flow cytometer (Becton-Dickinson, Franklin Lakes, N.J., USA), and was analyzed with ModFit LT™ (Verity Software House, Topsham, Me., USA) and the Cell Quest™ software package (Becton-Dickinson).

[2] = system: phosphorylated Akt; assay: Western blot analysis of phosphorylated Akt in HEC-1-A cells
Description: (§2) Cells were lysed with lysis solution (50 mM Tris-HCl, 1% SDS, 2 μg/mL leupeptin, 2 μg/mL aprotinin, 0.1% 2-mercaptoethanol, and 1 mM phenylmethyl sulfonyl fluoride). Protein extract was loaded onto a polyacrylamide gel, subjected to electrophoresis, and transferred to a nitrocellulose membrane. Blots were blocked in blocking solution (5% skim milk/TBST) for 1 hour at room temperature, and incubated with appropriate primary antibody for 1 hour at room temperature. Signal was detected with an ECL™ Western Blot Analysis System (GE Healthcare, Piscataway, N.J., USA) or a Chemi-Lumi One chemiluminescent detection kit (Nacalai Tesque, Inc., Japan). […]

[3] = system: HEC-1-A cells; assay: Cell viability testing (Cell Counting Kit-8), cell growth inhibition
Description: (§3) HEC-1-A cells derived from the human type 2 endometrial carcinoma cell line were cultured under conditions of 37° C. and 5% CO2 in RPMI medium to which 10% FBS had been added. Ishikawa human endometrial carcinoma cells were cultured under conditions of 37° C. and 5% CO2 in DMEM medium to which 10% FBS had been added. Human renal cell carcinoma cell line 786-O cells were cultured under conditions of 37° C. and 5% CO2 in RPMI 1640 medium to which 10% FBS, 2 mM glutamine, 100 U/mL penicillin, and 100 μg/mL streptomycin had been added. Human renal cell carcinoma cell line ACHN cells were cultured under conditions of 37° C. and 5% CO2 in DMEM medium to which 10% FBS, 4 mM glutamine, 100 U/mL penicillin, and 100 μg/mL streptomycin had been added. Human lymphoma cell line SU-DHL-6 cells were cultured under conditions of 37° C. and 5% CO2 in RPMI 1640 medium to which 10% FBS, 2 mM glutamine, 100 U/mL penicillin, and 100 μg/mL streptomycin had been added. Human breast cancer cell line MDA-MB-231 cells were cultured under conditions of 37° C. and 5% CO2 in RPMI 1640 medium to which 10% FBS, 2 mM glutamine, 100 U/mL penicillin, and 100 μg/mL streptomycin had been added.
(§4) Cell viability was determined by carrying out measurements at a wavelength of 450 nm with a Viento multi-well spectrophotometer (DS Pharma Biomedical, Japan) using a Cell Counting Kit-8 (Dojindo Laboratories, Japan).

[4] = system: HEC-1-A cells; assay: Colony formation assay
Description: Cells were seeded at a density of 200 cells per well in 6-well plates. After culturing these for 24 hours, treatment was carried out for 48 hours at respective concentrations with or without addition of OBP-801 and/or with addition of LY294002. These were then cultured in growth medium for 10 days, and the number of viable colonies was counted.

[5] = system: caspase-3, caspase-8 and caspase-9; assay: Western blot analysis of caspase-3, caspase-8 and caspase-9 cleavage in 786-O cells
Description: as §2

[6] = system: HEC-1-A cells; assay: Analysis of cell cycle and apoptosis (sub-G1 fraction, flow cytometry) with combination index; details: for effect on tumor cell cycle progression: used alone, OBP-801 4 nM, LY294002 12.5 μM, 24 hours to 72 hours
Description: as §1
Combination index (CI) was calculated using CalcuSyn software (Biosoft, UK) based on the method of Chou and Talalay. When CI<1, it is determined that the effect is synergistic; i.e., greater than the expected additive effect. When CI=1, it is determined that the effect is additive; when CI>1, it is determined that the effect is antagonistic.

[7] = system: Ishikawa cells; assay: Cell viability testing, cell growth inhibition; details: used alone
Description: as §3, §4

[8] = system: ACHN cells; assay: Cell viability testing, cell growth inhibition; details: used alone
Description: as §3, §4

[9] = system: 786-O cells; assay: Cell viability testing, cell growth inhibition; details: used alone
Description: as §3, §4

[10] = system: survivin and XIAP; assay: Western blot analysis of survivin and XIAP in 786-O cells; details: OBP-801 and LY294002 plus NAC
Description: as §2

[11] = system: caspases, Bim; assay: Western blot analysis of caspase cleavage and Bim in HEC-1-A cells; details: OBP-801 and LY294002 plus NAC
Description: as §2

[12] = system: HEC-1-A cells; assay: Measurement of intracellular reactive oxygen species (CM-H2DCFDA); details: OBP-801 and LY294002 plus NAC
Description: (§5) Cells were pretreated for 48 h with or without addition of OBP-801 and/or with addition of LY294002, and were thereafter treated with 10 μM 5-(and-6)-chloromethyl-2′,7′-dichlorodihydrofluorescein diacetate, acetyl ester (CM-H2DCFDA) (Invitrogen, Carlsbad, Calif., USA). After 30 minutes of incubation with 10 μM CM-H2DCFDA, cells were collected by trypsinization, were washed with PBS, and were analyzed by flow cytometry using FACSCalibur™ and CellQuest™ software (Becton-Dickinson).

[13] = system: 786-O cells; assay: as above; details: OBP-801 and LY294002 plus NAC
Description: as §5

[14] = system: acetylated histone H4; assay: Western blot analysis of acetylated histone H4 in HEC-1-A cells
Description: as §2

Cn1c(=O)n(-c2ccc(C(C)(C)C#N)cc2)c2c3cc(-c4cnc5ccccc5c4)ccc3ncc21 [BEZ235]
effect of combined use with OBP-801 (summary statement) [1]: synergistic tumor therapeutic/prophylactic effect

Nc1cc(C(F)(F)F)c(-c2cc(N3CCOCC3)nc(N3CCOCC3)n2)cn1 [BKM120]
effect of combined use with OBP-801 (summary statement) [1]: synergistic tumor therapeutic/prophylactic effect

Cc1nc(NC(=O)N2CCC[C@H]2C(N)=O)sc1-c1ccnc(C(C)(C)C(F)(F)F)c1 [BYL719]
effect of combined use with OBP-801 (summary statement) [1]: synergistic tumor therapeutic/prophylactic effect

CS(=O)(=O)N1CCc2c(-c3cnc(N)nc3)nc(N3CCOCC3)nc21 [CH5132799]
effect of combined use with OBP-801 (summary statement) [1]: synergistic tumor therapeutic/prophylactic effect

CS(=O)(=O)N1CCN(Cc2cc3nc(-c4cccc5[nH]ncc45)nc(N4CCOCC4)c3s2)CC1 [GDC-0941]
effect of combined use with OBP-801 (summary statement) [1]: synergistic tumor therapeutic/prophylactic effect

O=c1cc(N2CCOCC2)oc2c(-c3ccccc3)cccc12 [LY294002, 2-(4-morpholinyl)-8-phenyl-4H-1-benzopyran-4-one]
concentrations causing decrease in phosphorylated Akt [2]: ≥ 6.3 µM | concentrations causing inhibition of cell growth ([3]; LY294002 alone): ≥ 6.3 µM | number of colonies formed ([4]; LY294002 alone, even at a concentration as high as 12.5 μM): no reduction in the number of colonies formed was observed | induction of apoptosis (sub-G1), treatment alone ([1]; 786-O cells): only slight induction of apoptosis | cleavage of caspase-3, caspase-8 and caspase-9 [5]: did not induce cleavage of the foregoing caspases | effect on tumor cell cycle progression [6]: G1-phase arrest | growth of Ishikawa cells [7]: suppressed growth of Ishikawa cells in concentration-dependent fashion | growth of ACHN cells [8]: suppressed growth of 786-O cells or ACHN cells in concentration-dependent fashion | growth of 786-O cells [9]: suppressed growth of 786-O cells or ACHN cells in concentration-dependent fashion

CC(=O)N[C@@H](CS)C(=O)O [NAC, N-acetyl-L-cysteine]
effect on downregulation of survivin and XIAP by combined treatment [10]: restored | effect on caspase activation and Bim induction due to combined treatment [11]: inhibited the caspase activation and Bim induction | effect on induction of apoptosis due to combined treatment ([1]; 786-O cells, OBP-801 and LY294002 plus NAC): blocked the induction of apoptosis | effect on increase of intracellular reactive oxygen species caused by combined treatment [12]: blocked | effect on induction of intracellular reactive oxygen species due to combined treatment [13]: blocked the induction of intracellular reactive oxygen species | effect on induction of apoptosis resulting from combined treatment ([6]; HEC-1-A cells, OBP-801 and LY294002 plus NAC): almost completely suppressed

COC(=O)C[C@H](NC(=O)[C@H](C)NC(=O)[C@@H](NC(=O)OCc1ccccc1)C(C)C)C(=O)CF [zVAD-fmk] (Cbz-Val-Ala-Asp(OMe)-CH2F)
effect on apoptosis induced by combined treatment with OBP-801 and LY294002 ([1]; 786-O cells, pan-caspase inhibitor added): effectively suppressed the apoptosis | effect on apoptosis induced by combined use of OBP-801 and PI3K inhibitor ([6]; HEC-1-A cells, pan-caspase inhibitor added): almost completely suppressed

spiruchostatin A [OBP-801]
concentrations causing increase of acetylated histone H4 [14]: ≥ 1.6 nM | concentrations causing inhibition of cell growth ([3]; OBP-801 alone): ≥ 0.0031 µM | number of colonies formed ([4]; OBP-801 alone at 4 nM, 48 hours treatment, 10 days culture): 60% | induction of apoptosis (sub-G1), treatment alone ([1]; 786-O cells): only slight induction of apoptosis | cleavage of caspase-3, caspase-8 and caspase-9 [5]: did not induce cleavage of the foregoing caspases | effect on tumor cell cycle progression [6]: G2/M-phase arrest | growth of Ishikawa cells [7]: suppressed growth of Ishikawa cells in concentration-dependent fashion | growth of ACHN cells [8]: suppressed growth of 786-O cells or ACHN cells in concentration-dependent fashion | growth of 786-O cells [9]: suppressed growth of 786-O cells or ACHN cells in concentration-dependent fashion
